Data from PMC10938783, “A novel pan-PI3K inhibitor KTC1101 synergizes with anti-PD-1 therapy by targeting tumor suppression and immune activation” (Molecular Cancer, 2024).

System: B16 cells gene expression
Experiment: RNA-Seq (DEGs, GSEA, heatmaps) of B16 cells
Conditions: B16 cells

COc1cc(N)cc2c1nc(C(F)F)n2-c1nc(N2CCCOCC2)nc(N2CCOCC2)n1 [KTC1101, 2-(difluoromethyl)-4-methoxy-1-(4-morpholino-6-(1,4-oxazepan-4-yl)-1,3,5-triazin-2-yl)-1H-benzo[d]imidazol-6-amine]
NES: Fat digestion and absorption (GSEA KEGG mmu04975, KTC 0.2μM): -1.65 | enrichmentScore: Fat digestion and absorption (GSEA KEGG mmu04975, KTC 0.2μM): -0.5488 | NES: Bile secretion (GSEA KEGG mmu04976, KTC 0.2μM): 1.51 | enrichmentScore: Bile secretion (GSEA KEGG mmu04976, KTC 0.2μM): 0.4976 | NES: Mineral absorption (GSEA KEGG mmu04978, KTC 0.2μM): -1.388 | enrichmentScore: Mineral absorption (GSEA KEGG mmu04978, KTC 0.2μM): -0.4138 | NES: Cholesterol metabolism (GSEA KEGG mmu04979, KTC 0.2μM): -1.456 | enrichmentScore: Cholesterol metabolism (GSEA KEGG mmu04979, KTC 0.2μM): -0.4442 | NES: Alzheimer disease (GSEA KEGG mmu05010, KTC 0.2μM): -1.608 | enrichmentScore: Alzheimer disease (GSEA KEGG mmu05010, KTC 0.2μM): -0.3072 | NES: Parkinson disease (GSEA KEGG mmu05012, KTC 0.2μM): -1.964 | enrichmentScore: Parkinson disease (GSEA KEGG mmu05012, KTC 0.2μM): -0.3949 | NES: Amyotrophic lateral sclerosis (GSEA KEGG mmu05014, KTC 0.2μM): -1.71 | enrichmentScore: Amyotrophic lateral sclerosis (GSEA KEGG mmu05014, KTC 0.2μM): -0.329 | NES: Huntington disease (GSEA KEGG mmu05016, KTC 0.2μM): -1.539 | enrichmentScore: Huntington disease (GSEA KEGG mmu05016, KTC 0.2μM): -0.3057 | NES: Prion disease (GSEA KEGG mmu05020, KTC 0.2μM): -1.774 | enrichmentScore: Prion disease (GSEA KEGG mmu05020, KTC 0.2μM): -0.3631 | NES: Pathways of neurodegeneration - multiple diseases (GSEA KEGG mmu05022, KTC 0.2μM): -1.25 | enrichmentScore: Pathways of neurodegeneration - multiple diseases (GSEA KEGG mmu05022, KTC 0.2μM): -0.2359 | NES: Morphine addiction (GSEA KEGG mmu05032, KTC 0.2μM): 2.084 | enrichmentScore: Morphine addiction (GSEA KEGG mmu05032, KTC 0.2μM): 0.6804 | NES: Leishmaniasis (GSEA KEGG mmu05140, KTC 0.2μM): 1.636 | enrichmentScore: Leishmaniasis (GSEA KEGG mmu05140, KTC 0.2μM): 0.5458 | NES: Chagas disease (GSEA KEGG mmu05142, KTC 0.2μM): 1.762 | enrichmentScore: Chagas disease (GSEA KEGG mmu05142, KTC 0.2μM): 0.5294 | NES: Amoebiasis (GSEA KEGG mmu05146, KTC 0.2μM): 1.187 | enrichmentScore: Amoebiasis (GSEA KEGG mmu05146, KTC 0.2μM): 0.3662 | NES: Hepatitis B (GSEA KEGG mmu05161, KTC 0.2μM): 1.161 | enrichmentScore: Hepatitis B (GSEA KEGG mmu05161, KTC 0.2μM): 0.3151 | NES: Human cytomegalovirus infection (GSEA KEGG mmu05163, KTC 0.2μM): 1.262 | enrichmentScore: Human cytomegalovirus infection (GSEA KEGG mmu05163, KTC 0.2μM): 0.333 | NES: Human T-cell leukemia virus 1 infection (GSEA KEGG mmu05166, KTC 0.2μM): 1.309 | enrichmentScore: Human T-cell leukemia virus 1 infection (GSEA KEGG mmu05166, KTC 0.2μM): 0.342 | NES: Kaposi sarcoma-associated herpesvirus infection (GSEA KEGG mmu05167, KTC 0.2μM): 1.355 | enrichmentScore: Kaposi sarcoma-associated herpesvirus infection (GSEA KEGG mmu05167, KTC 0.2μM): 0.3649 | NES: Herpes simplex virus 1 infection (GSEA KEGG mmu05168, KTC 0.2μM): 1.765 | enrichmentScore: Herpes simplex virus 1 infection (GSEA KEGG mmu05168, KTC 0.2μM): 0.4327 | NES: Transcriptional misregulation in cancer (GSEA KEGG mmu05202, KTC 0.2μM): 1.705 | enrichmentScore: Transcriptional misregulation in cancer (GSEA KEGG mmu05202, KTC 0.2μM): 0.4772 | NES: Proteoglycans in cancer (GSEA KEGG mmu05205, KTC 0.2μM): 1.25 | enrichmentScore: Proteoglycans in cancer (GSEA KEGG mmu05205, KTC 0.2μM): 0.3314 | NES: Chemical carcinogenesis - reactive oxygen species (GSEA KEGG mmu05208, KTC 0.2μM): -1.582 | enrichmentScore: Chemical carcinogenesis - reactive oxygen species (GSEA KEGG mmu05208, KTC 0.2μM): -0.3305 | NES: Prostate cancer (GSEA KEGG mmu05215, KTC 0.2μM): 1.478 | enrichmentScore: Prostate cancer (GSEA KEGG mmu05215, KTC 0.2μM): 0.4248 | NES: Basal cell carcinoma (GSEA KEGG mmu05217, KTC 0.2μM): -1.6573 | enrichmentScore: Basal cell carcinoma (GSEA KEGG mmu05217, KTC 0.2μM): -0.5057 | NES: Acute myeloid leukemia (GSEA KEGG mmu05221, KTC 0.2μM): 1.189 | enrichmentScore: Acute myeloid leukemia (GSEA KEGG mmu05221, KTC 0.2μM): 0.3668 | NES: Small cell lung cancer (GSEA KEGG mmu05222, KTC 0.2μM): 1.1778 | enrichmentScore: Small cell lung cancer (GSEA KEGG mmu05222, KTC 0.2μM): 0.3365 | NES: Breast cancer (GSEA KEGG mmu05224, KTC 0.2μM): 1.3909 | enrichmentScore: Breast cancer (GSEA KEGG mmu05224, KTC 0.2μM): 0.3926 | NES: Hepatocellular carcinoma (GSEA KEGG mmu05225, KTC 0.2μM): -1.183 | enrichmentScore: Hepatocellular carcinoma (GSEA KEGG mmu05225, KTC 0.2μM): -0.2565 | NES: Gastric cancer (GSEA KEGG mmu05226, KTC 0.2μM): 1.191 | enrichmentScore: Gastric cancer (GSEA KEGG mmu05226, KTC 0.2μM): 0.3347 | NES: Central carbon metabolism in cancer (GSEA KEGG mmu05230, KTC 0.2μM): -1.65 | enrichmentScore: Central carbon metabolism in cancer (GSEA KEGG mmu05230, KTC 0.2μM): -0.4278 | NES: Inflammatory bowel disease (GSEA KEGG mmu05321, KTC 0.2μM): 1.418 | enrichmentScore: Inflammatory bowel disease (GSEA KEGG mmu05321, KTC 0.2μM): 0.5282 | NES: Rheumatoid arthritis (GSEA KEGG mmu05323, KTC 0.2μM): 1.449 | enrichmentScore: Rheumatoid arthritis (GSEA KEGG mmu05323, KTC 0.2μM): 0.4777 | NES: Hypertrophic cardiomyopathy (GSEA KEGG mmu05410, KTC 0.2μM): 1.341 | enrichmentScore: Hypertrophic cardiomyopathy (GSEA KEGG mmu05410, KTC 0.2μM): 0.4238 | NES: Dilated cardiomyopathy (GSEA KEGG mmu05414, KTC 0.2μM): 1.501 | enrichmentScore: Dilated cardiomyopathy (GSEA KEGG mmu05414, KTC 0.2μM): 0.4674 | NES: Diabetic cardiomyopathy (GSEA KEGG mmu05415, KTC 0.2μM): -1.29 | enrichmentScore: Diabetic cardiomyopathy (GSEA KEGG mmu05415, KTC 0.2μM): -0.2769 | NES: Fluid shear stress and atherosclerosis (GSEA KEGG mmu05418, KTC 0.2μM): -1.4518 | enrichmentScore: Fluid shear stress and atherosclerosis (GSEA KEGG mmu05418, KTC 0.2μM): -0.3333 | NES, mmu00071 Fatty acid degradation (KTC1101 0.2μM, GSEA KEGG): 0.7528 | NES, mmu00310 Lysine degradation (KTC1101 0.2μM, GSEA KEGG): -0.7398 | NES, mmu00380 Tryptophan metabolism (KTC1101 0.2μM, GSEA KEGG): 1.209 | NES, mmu00500 Starch and sucrose metabolism (KTC1101 0.2μM, GSEA KEGG): -1.196 | NES, mmu00510 N-Glycan biosynthesis (KTC1101 0.2μM, GSEA KEGG): -0.6482 | NES, mmu00513 Various types of N-glycan biosynthesis (KTC1101 0.2μM, GSEA KEGG): 1.019 | NES, mmu00514 Other types of O-glycan biosynthesis (KTC1101 0.2μM, GSEA KEGG): 1.221 | NES, mmu00562 Inositol phosphate metabolism (KTC1101 0.2μM, GSEA KEGG): -1.021 | NES, mmu00564 Glycerophospholipid metabolism (KTC1101 0.2μM, GSEA KEGG): -0.7177
